Measurements taken from US20240075009A1, “TREATMENT OF S[…] PSILOCIN OR PSILOCYBIN” (NEW YORK UNIVERSITY, priority 2021, published 2024).

Key:
Type in all cases: in vivo, human
cancer patients [1] = assay: Composite desire for hastened death (DHD) score (5 loss-of-meaning items of the Demoralization Scale), crossover trial with psychotherapy; conditions: for DHD within-subjects reduction relative to baseline: combined groups
Experimental: (§1) 29 participants were randomly assigned to one of two groups: psilocybin (0.3 mg/kg) on the first medication session followed by niacin (250 mg) on the second session (i.e. psilocybin-first group), or niacin (250 mg) on the first medication session followed by psilocybin (0.3 mg/kg) on the second session (i.e. niacin-first group). Psilocybin and niacin were administered in identically appearing gelatin capsules.
(§2) Participants received three 2-hour preparatory psychotherapy sessions in order to review the purpose and intention of participation in the study, treatment goals, and structure of the treatment sessions. Medications were administered in 8-hour treatment sessions which included a discussion of the participant's subjective experience with the treatment team to consolidate the memory of the experience and to begin the process of post-integrative psychotherapy. Participants also received three 2-hour post-medication integration sessions (repeated after the second dosing session) to further consolidate the memory of the experience and to continue the process of psychological integration. All psychotherapy treatment sessions were delivered by a dyadic therapy team trained in a blend of psychotherapies with an evidence base to support their use in cancer patients (drawing upon principles of palliative care therapy, existential psychotherapy, cognitive-behavioural therapy, psychoanalysis therapy, and transpersonal psychology) and were taught about the safety and clinical pharmacology of psilocybin. Each therapy dyad underwent six confidential one-to-one sessions to build their alliance and exchange ideas about psychedelic therapy. The trial employed a crossover design at seven weeks following the first drug administration, with an outcome assessment at 6.5 months (26 weeks) following the second drug administration (i.e. after the crossover).
(§3) Two long-term follow ups (LTFUs) were carried out to assess the continued effect of psilocybin.
(§4) Primary outcomes (suicidal ideation and desire for hastened death) were measured according to the following methods: • Beck Depression Inventory-II (BDI-II) (Beck et al., 1988)— this is a widely used self-report measure to assess depression. The BDI-II comprises 21 questions related to depressive symptoms experienced over the previous two weeks, and is rated on a […] (total score ranges from 0-63). Scores greater than 12 correlate with clinical depression. […] Item #9 on the BDI queries suicidal ideation with the following options: 0=I don't have any thoughts of killing myself; 1=I have thoughts of killing myself, but I would not carry them out; 2=I would like to kill myself; 3=I would kill myself if I had the chance. The BDI-II was assessed at baseline, 1-day prior to dose-1, 8-hours after dose-1, 1-day after dose-1, 2-weeks after dose-1, 6-weeks after dose-1, 7-weeks after dose-1 (corresponding to 1-day prior to dose-2), 1-day after dose-2, 6-weeks after dose-2, 26-weeks after dose-2, and at the 3.2 year and 4.5 year LTFU assessments. • The Brief Symptom Inventory (BSI) (Derogatis 1993) is a 53-item self-report questionnaire that assesses a range of psychiatric symptoms, generating 9 domains (depression, anxiety, phobic anxiety, somatization, obsession-compulsion, interpersonal sensitivity, hostility, paranoid ideation, psychoticism) and a global severity index.

cancer patients [2] = assay: Composite suicidal ideation (SI) score (BDI-II item #9 + BSI item #9, T-scores), crossover trial with psychotherapy; conditions: for Composite SI within-subject effect size relative to baseline, Cohen's d: psilocybin-1st group
Experimental: as §1, §2, §3, §4

cancer patients [3] = assay: Primary outcomes DHD and SI taken together: within-subject effect sizes across measures and time points
Experimental: as §1
Participants received three 2-hour preparatory psychotherapy sessions in order to review the purpose and intention of participation in the study, treatment goals, and structure of the treatment sessions. Medications were administered in 8-hour treatment sessions which included a discussion of the participant's subjective experience with the treatment team to consolidate the memory of the experience and to begin the process of post-integrative psychotherapy. […]
Primary outcomes (suicidal ideation and desire for hastened death) were measured according to the following methods: • Beck Depression Inventory-II (BDI-II) (Beck et al., 1988)— this is a widely used self-report measure to assess depression. […] It is measured on a Likert scale: 0=Not at all; 1=Little, 2=Moderately; 3=Quite a bit; 4=Extremely. […]

[4] = after crossover, both dose-sequence groups combined, 6.5-month follow-up, p<0.001

O=C(O)c1cccnc1 [niacin]
Composite DHD score, main effect of time within group (cancer patients [1]; niacin-1st group (250 mg), prior to the crossover, p=0.079, n=5): no significant main effect of time | Composite suicidality/SI score, main effect of time within group (cancer patients [2]; niacin-1st group (250 mg), prior to the crossover, p=0.065, n=5): no significant main effect of time

CN(C)CCc1c[nH]c2cccc(OP(=O)(O)O)c12 [psilocybin, [3-(2-dimethylaminoethyl)-1H-indol-4-yl] dihydrogen phosphate]
DHD mean score relative to baseline, within psilocybin-1st group (cancer patients [1]; 2-weeks post dose-1, pre-crossover, p=0.005, n=6): differed significantly | DHD between-group difference, psilocybin-1st vs niacin-1st, Cohen's d (cancer patients [1]; 2-weeks post dose-1, pre-crossover, psilocybin 0.3 mg/kg single dose, n=6 vs n=5): 1.32 | DHD within-subjects change relative to baseline (cancer patients [1]; [4]): statistically significant within-subjects reductions | DHD within-subjects reduction relative to baseline (cancer patients [1]; after crossover, 3.2-year follow-up, p<0.001): remained significant | DHD within-subjects reduction relative to baseline (cancer patients [1]; after crossover, 4.5-year follow-up, p<0.001): remained significant | Composite SI within-subjects change relative to baseline (cancer patients [2]; [4]): statistically significant within-subjects reductions | Composite SI, between-group comparison psilocybin-1st vs niacin-1st (cancer patients [2]; prior to the crossover, psilocybin 0.3 mg/kg, interaction p=0.065, group p=0.614): no significant differences between the two groups | Composite SI within-subject effect size relative to baseline, Cohen's d (cancer patients [2]; 2-weeks post-dose 1, p<0.001): 2.40 | Composite SI within-subject effect size relative to baseline, Cohen's d (cancer patients [2]; 7-weeks post-dose 1, p<0.001): 3.50 | Composite SI within-subject effect size relative to baseline, Cohen's d (cancer patients [2]; 8-hours post-dose 1, p<0.001): 2.40 | Within-subjects effect sizes across DHD and SI and time points, Cohen's d range (cancer patients [3]; after crossover, combined groups, 6.5 months to 4.5 years): 1.51-2.56 | Within-subject effect sizes across DHD and SI and time points, Cohen's d range (cancer patients [3]; psilocybin-1st group, pre-crossover, statistically significant reductions): 1.20-3.50
